Test results published in patent US7626042B2, “O-substituted hydroxyaryl derivatives” (Institute of Medicinal Molecular Design, Inc., priority 2002, dated 2009).

Test system: NF-κB activation
Assay: Inhibitory activity against NF-κB activation, luciferase reporter assay under TNF-α stimulation
Format: cell-based, human
Details: HepG2 cells, TNF-α 40 ng/ml, 4 hours; for inhibition at 1 µg/mL / inhibition at 10 µg/mL: Homo sapiens, read-out: Inhibitory Ratio of NF-κ B Activation(%)
Description: Inhibitory activity against NF-κB activation was measured by referring to the method of Hill et al. (Cell, (USA), in 1993, Vol. 73, No. 2, p. 395-406). Using a transfection reagent(Effectene; QIAGEN), the human hepatoma cell strain HepG2 was transfected with a plasmid (pNFκ Luc Reporter Plasmid; STRATAGENE) integrated with an oligonucleotide having five tandem copies of NF-κB binding sequences(TGGGGACTTTCCGC) on a upstream region of firefly luciferase gene (Luc) according to the QIAGEN's protocol, and the cells were incubated for 6 to 24 hours. Then the cells were cultured for 4 hours after the addition of TNF-α (40 ng/ml) in the presence of a test compound, and intracellular luciferase activity was measured by using PicaGene LT (TOYO INK MFG Co., Ltd.) and a chemical luminescence measurement apparatus(SPECTRAFluor Plus; TECAN). The inhibitory ratio was measured as a ratio relative to a value of the luciferase activity in the absence of the test compound.

Structure (SMILES) | Inhibitory Ratio of NF-κ B Activation(%) (Drug Concentration 1 μg/mL) | Inhibitory Ratio of NF-κ B Activation(%) (Drug Concentration 10 μg/mL) | inhibition at 1 µg/mL (Drug Concentration 1 μg/mL) | inhibition at 10 µg/mL (Drug Concentration 10 μg/mL)
COc1ccccc1NC(=O)c1cc2cc(Br)ccc2cc1OP(=O)(O)O [Compound 53] | 21.5% | 92.0% |  | 
CC(C)NC(=O)Oc1ccc(Cl)cc1C(=O)Nc1cc(C(F)(F)F)cc(C(F)(F)F)c1 [Compound 54] | 96.0% | 98.0% |  | 
O=C(NCc1ccccc1)Oc1ccc(Cl)cc1C(=O)Nc1cc(C(F)(F)F)cc(C(F)(F)F)c1 [Compound 55] | 97.1% | 99.1% |  | 
CCOC(=O)CNC(=O)Oc1ccc(Cl)cc1C(=O)Nc1cc(C(F)(F)F)cc(C(F)(F)F)c1 [Compound 56, 5-chloro-2-{N-[(ethoxycarbonyl)methyl]carbamoyl}oxy-N-[3,5-bis(trifluoromethyl)-phenyl]benzamide] |  |  | 96.8% | 98.9%
O=C(O)CNC(=O)Oc1ccc(Cl)cc1C(=O)Nc1cc(C(F)(F)F)cc(C(F)(F)F)c1 [Compound 57, 2-[N-(carboxymethyl)carbamoyl]oxy-5-chloro-N-[3,5-bis(trifluoromethyl)phenyl]-benzamide] |  |  | 95.4% | 97.2%
COC(=O)[C@H](C)NC(=O)Oc1ccc(Cl)cc1C(=O)Nc1cc(C(F)(F)F)cc(C(F)(F)F)c1 [Compound 58] | 97.9% | 98.8% |  | 
COC(=O)[C@H](Cc1ccccc1)NC(=O)Oc1ccc(Cl)cc1C(=O)Nc1cc(C(F)(F)F)cc(C(F)(F)F)c1 [Compound 59] | 96.2% | 97.8% |  | 
COC(=O)[C@H](COC(C)(C)C)NC(=O)Oc1ccc(Cl)cc1C(=O)Nc1cc(C(F)(F)F)cc(C(F)(F)F)c1 [Compound 60] | 97.7% | 98.9% |  | 
CC(C)(C)OC(=O)[C@H](Cc1ccccc1)NC(=O)CNC(=O)Oc1ccc(Cl)cc1C(=O)Nc1cc(C(F)(F)F)cc(C(F)(F)F)c1 [Compound 61, (S)-2-[N-({N-[1-(tert-butoxycarbonyl)-2-phenylethyl]carbamoyl}methyl)carbamoyl]oxy-5-chloro-N-[3,5-bis(trifluoromethyl)phenyl]benzamide] |  |  | 98.6% | 99.2%
O=C(CNC(=O)Oc1ccc(Cl)cc1C(=O)Nc1cc(C(F)(F)F)cc(C(F)(F)F)c1)N[C@@H](Cc1ccccc1)C(=O)O [Compound 62] | 96.8% | 97.8% |  | 
CC(C)(C)OC(=O)C[C@H](NC(=O)CNC(=O)Oc1ccc(Cl)cc1C(=O)Nc1cc(C(F)(F)F)cc(C(F)(F)F)c1)C(=O)OC(C)(C)C [Compound 63, (S)-2-[N-({N-[1,2-di(tert-butoxycarbonyl)ethyl]carbamoyl}-methyl)carbamoyl]oxy-5-chloro-N-[3,5-bis(trifluoromethyl)phenyl]benzamide] |  |  | 97.1% | 98.2%
O=C(O)C[C@H](NC(=O)CNC(=O)Oc1ccc(Cl)cc1C(=O)Nc1cc(C(F)(F)F)cc(C(F)(F)F)c1)C(=O)O [Compound 64] | 96.3% | 97.5% |  | 
CC(C)(C)OC(=O)NCCCC[C@H](NC(=O)CNC(=O)Oc1ccc(Cl)cc1C(=O)Nc1cc(C(F)(F)F)cc(C(F)(F)F)c1)C(=O)OC(C)(C)C [Compound 65] | 95.8% | 97.3% |  | 
CSc1ccc(NC(=O)Oc2cc3ccccc3cc2C(=O)Nc2ccccc2)cc1 [Compound 66] | 12.2% | 41.4% |  | 
CCN(CC)C(=O)Oc1ccc(Cl)cc1C(=O)Nc1cc(C(F)(F)F)cc(C(F)(F)F)c1 [Compound 68] | 53.0% | 47.4% |  | 
CN(C(=O)Oc1ccc(Cl)cc1C(=O)Nc1cc(C(F)(F)F)cc(C(F)(F)F)c1)c1ccccc1 [Compound 69] | 29.7% | 18.7% |  | 
O=C(Nc1cc(C(F)(F)F)cc(C(F)(F)F)c1)c1cc(Cl)ccc1OC(=O)N1CCCC1 [Compound 70] | 48.1% | 89.6% |  | 
O=C(Nc1cc(C(F)(F)F)cc(C(F)(F)F)c1)c1cc(Cl)ccc1OC(=O)N1CCOCC1 [Compound 71] | 70.6% | 78.0% |  | 
CN1CCN(C(=O)Oc2ccc(Cl)cc2C(=O)Nc2cc(C(F)(F)F)cc(C(F)(F)F)c2)CC1 [Compound 72] | 39.4% | 35.2% |  | 
O=C(Nc1cc(C(F)(F)F)cc(C(F)(F)F)c1)c1cc(Cl)ccc1OC(=O)N1CCC(C(=O)O)CC1 [Compound 74] | 56.2% | 58.1% |  | 
CCOC(=O)CN(CC(=O)OCC)C(=O)Oc1ccc(Cl)cc1C(=O)Nc1cc(C(F)(F)F)cc(C(F)(F)F)c1 [Compound 75, 2-{N,N-bis[(ethoxycarbonyl)methyl]carbamoyl}oxy-5-chloro-N-[3,5-bis(trifluoromethyl)phenyl]benzamide] |  |  | 94.3% | 94.9%
O=C(O)CN(CC(=O)O)C(=O)Oc1ccc(Cl)cc1C(=O)Nc1cc(C(F)(F)F)cc(C(F)(F)F)c1 [Compound 76] | 98.9% | 98.2% |  | 
O=C(Nc1cc(C(F)(F)F)cc(C(F)(F)F)c1)c1cc(Br)ccc1OC(=O)N1CCOCC1 [Compound 77, 5-Bromo-2-(morpholinocarbonyl)oxy-N-[3,5-bis(trifluoromethyl)phenyl]benzamide] |  |  | 69.7% | 31%
O=C(Nc1cc(C(F)(F)F)cc(C(F)(F)F)c1)c1cc(C(F)(F)F)ccc1OC(=O)N1CCOCC1 [Compound 79, 2-(Morpholinocarbonyl)oxy-5-trifluoromethyl-N-[3,5-bis(trifluoromethyl)phenyl]-benzamide] |  |  | 88.1% | 70.2%
O=C(Nc1cc(C(F)(F)F)cc(C(F)(F)F)c1)c1ccc(Cl)cc1OC(=O)N1CCOCC1 [Compound 80, 4-Chloro-2-(morpholinocarbonyl)oxy-N-[3,5-bis(trifluoromethyl)phenyl]benzamide] |  |  | 91.4% | 68.4%
O=C(Nc1cc(C(F)(F)F)cc(C(F)(F)F)c1)c1cc(-c2ccccc2)ccc1OC(=O)N1CCOCC1 [Compound 81, 2-(Morpholinocarbonyl)oxy-5-phenyl-N-[3,5-bis(trifluoromethyl)phenyl]benzamide] |  |  | 26.4% | 29.2%
O=C(Nc1cc(C(F)(F)F)cc(C(F)(F)F)c1)c1c(OC(=O)N2CCOCC2)ccc2ccccc12 [Compound 83, 2-(Morpholinocarbonyl)oxy-N-[3,5-bis(trifluoromethyl)phenyl]-1-naphthamide] |  |  | 23.5% | 18%
O=C(Nc1cc(C(F)(F)F)ccc1Cl)c1cc(Br)ccc1OC(=O)N1CCOCC1 [Compound 85, 5-Bromo-N-[2-chloro-5-(trifluoromethyl)phenyl]-2-[(morpholinocarbonyl)oxy]-benzamide] |  |  | 21.4% | 29.8%
